The values that follow come from ChEMBL document CHEMBL4619771, “Terpenoids from the Liverwort Plagiochila fruticosa and Their Antivirulence Activity against Candida albicans” (2020).

Test [1] concerns Candida albicans. Briefly: Antifungal activity against wild-type Candida albicans SC5314 assessed as reduction in filamentous growth. Format: functional, organism-based.
Test [2] deals with Candida albicans. Briefly: Antifungal activity against Candida albicans DSY654 assessed as reduction in filamentous growth. In kind it is functional, organism-based.
Test [3] relates to Candida albicans. Briefly: Upregulation of PDE2 gene expression in Candida albicans DSY654 at 4 ug/ml after 1.5 to 6 hrs by RT-qPCR assay. Format: functional, organism-based. (In qPCR the cycle at which signal appears reflects the starting amount.)
For test [4], the system named is Candida albicans. Briefly: Downregulation of ECE1 gene expression in Candida albicans DSY654 at 4 ug/ml after 1.5 to 6 hrs by RT-qPCR assay. Format: functional, organism-based.
Test [5] concerns Candida albicans. Briefly: Downregulation of UME6 gene expression in Candida albicans DSY654 at 4 ug/ml after 1.5 to 6 hrs by RT-qPCR assay. Format: functional, organism-based.
Test [6] deals with Candida albicans. Briefly: Downregulation of ALS3 gene expression in Candida albicans DSY654 at 4 ug/ml after 1.5 to 6 hrs by RT-qPCR assay. In kind it is functional, organism-based.
The subject of test [7] is Candida albicans. Briefly: Antifungal activity against Candida albicans DSY654 assessed as inhibition of massive filamentation at 4 to 32 ug/ml. Format: functional, organism-based.
Test [8] concerns Candida albicans. Briefly: Upregulation of NRG1 gene expression in Candida albicans DSY654 at 4 ug/ml after 1.5 to 6 hrs by RT-qPCR assay relative to control. Format: functional.
Test [9] deals with Candida albicans. Briefly: Antifungal activity against Candida albicans DSY654 assessed as inhibition of biofilm formation incubated for 24 hrs by fluorescent microscopy. Format: functional, organism-based.
In test [10] the test system is Candida albicans. Briefly: Antifungal activity against Candida albicans DSY654 assessed as reduction in number of adherent fungal cells on human A549 cells after 90 mins by calcofluor White staining based fluorescent microscopy. In kind it is functional, organism-based.
In test [11] the test system is Candida albicans. Briefly: Antifungal activity against Candida albicans DSY654 assessed as inhibition of yeast to hyphal morphological transition measured at 6 hrs by fluorescent microscopy. Format: functional, organism-based.
Test [12] has as its system Candida albicans. Briefly: Downregulation of CDC35 gene expression in Candida albicans DSY654 at 4 ug/ml after 1.5 to 6 hrs by RT-qPCR assay. In kind it is functional, organism-based.
The test system of test [13] is Candida albicans. Briefly: Downregulation of RAS1 gene expression in Candida albicans DSY654 at 4 ug/ml after 1.5 to 6 hrs by RT-qPCR assay. In kind it is functional, organism-based.
In test [14] the test system is Candida albicans. Briefly: Antifungal activity against Candida albicans DSY654 assessed as inhibition of biofilm formation incubated for 24 hrs by XTT assay. Format: functional, organism-based. (Formazan colour is commonly taken as a measure of viable cells.)
Test [15] has as its system Candida albicans. Briefly: Downregulation of HWP1 gene expression in Candida albicans DSY654 at 4 ug/ml after 1.5 to 6 hrs by RT-qPCR assay. In kind it is functional, organism-based.

Active and inactive are the calls of the source. The rule behind the calls is not given here. Where only a bound is given, the exact number is not on record here.

On to `CC1=C2C[C@@]3(C)CC(=O)[C@](O)(C(C)C)[C@@H]3CC[C@H](C)[C@@]2(O)CC1=O`, for which the outcome in the test on Candida albicans [1] was inactive.

With `CC1=C2C[C@]3(C)CC(=O)[C@@](O)(C(C)C)[C@H]3CC[C@H](C)[C@]2(O)CC1=O`, the outcome in the test on Candida albicans [1] was inactive.

With `CC(=O)OC/C1=C\[C@@H](O)[C@@H](OC(C)=O)/C(C)=C/[C@@H]2[C@H](C[C@H]1OC(=O)CCc1ccccc1)[C@]2(C)CO`, the result in the test with Candida albicans [1] was inactive.

On to `C=C1[C@@H](O)[C@@H]2[C@H](C[C@@H](OC(=O)CCc3ccccc3)/C(CO)=C/[C@@H](OC(C)=O)[C@H]1O)[C@]2(C)CO`, for which the outcome in the test with Candida albicans [1] was inactive.

With `CC(C)[C@@]1(O)C(=O)C[C@]2(C)C[C@]3(O)C(=CC(=O)[C@H]3C)[C@@H](C)CC[C@H]21`, in the test with Candida albicans [1], the result was inactive.

As to `C=C1CC[C@H]2[C@@H](/C=C(\C)CC[C@H]1O)[C@@H](C(C)(C)O)CC[C@@H]2C`, the outcome in the test with Candida albicans [2] was Active. Further, the result in the test with Candida albicans [1] was inactive.

In the case of `CC(=O)O[C@H]1/C(C)=C/[C@@H]2[C@H](C[C@@H](OC(=O)CCc3ccccc3)/C(CO)=C/[C@H]1O)[C@]2(C)CO`, the outcome in the test on Candida albicans [1] was inactive.

On to `C=C1CC[C@@H](O)[C@]2(C)CC[C@H]3[C@@H]([C@@H]12)[C@@H](C(C)(C)O)CC[C@@H]3C`, for which, in the test with Candida albicans [1], the result was inactive.

As to `CC(C)[C@@]1(O)C(=O)C[C@]2(C)CC3=C(C(=O)C[C@@]3(C)O)[C@@H](C)CC[C@H]21`, the outcome in the test on Candida albicans [1] was inactive.

For `CC(=O)O[C@H]1OC=C(CO)[C@H]2[C@@H]1[C@@]1(CC[C@H]3[C@@H]2[C@@]3(CO)COC(=O)/C=C/c2ccccc2)CO1`, the result with Candida albicans [1] was inactive.

In the case of `C=C1CC[C@H]2[C@@H](/C=C(\C)[C@H](OC(C)=O)[C@H](OC(C)=O)[C@@H]1OC(C)=O)C2(C)C`, the result with Candida albicans [3], in the test on Candida albicans [4], in the test with Candida albicans [5], with Candida albicans [6], in the test on Candida albicans [7] and with Candida albicans [12] was Active. Also, the result in the test on Candida albicans [2], in the test with Candida albicans [13] and in the test with Candida albicans [15] was Active. In addition, the “fold change (FC)” value with Candida albicans [8] is given as more than 10. The Activity entry in the test with Candida albicans [9], in the test with Candida albicans [10], in the test on Candida albicans [11] and in the test on Candida albicans [14] was “Dose-dependent effect” each time. In addition, the result in the test on Candida albicans [1] was inactive.

As to `C=C1[C@@H](O)[C@@H]2[C@H](C[C@@H](O)/C(COC(=O)CCc3ccccc3)=C/[C@@H](O)[C@H]1OC(C)=O)[C@]2(C)CO`, in the test on Candida albicans [1], the result was inactive.

Take `CC(C)[C@]1(O)C(=O)C[C@@]2(C)CC3=C([C@H](C)CC[C@@H]21)[C@H](O)CC3=O`: in the test on Candida albicans [1], the result was inactive.

`CC(=O)O[C@@H]1/C=C(\CO)[C@H](OC(=O)CCc2ccccc2)C[C@H]2[C@@H](/C=C(\C)[C@@H]1O)[C@@]2(C)CO`: in the test on Candida albicans [1], the result was inactive.
